The values that follow come from patent publication US4954490A, “11 β-substituted progesterone analogs” (Research Triangle Institute, priority 1988, dated 1990).

Bounds are passed on as bounds.

The target of one assay is T1, glucocorticoid receptor (Rattus norvegicus, UniProt P06536).
T1 construct: glucocorticoid receptor from thymus of adrenalectomized rats; from tissue; host or cells: thymus of adrenalectomized rats
T1 sequence (P06536 1-795): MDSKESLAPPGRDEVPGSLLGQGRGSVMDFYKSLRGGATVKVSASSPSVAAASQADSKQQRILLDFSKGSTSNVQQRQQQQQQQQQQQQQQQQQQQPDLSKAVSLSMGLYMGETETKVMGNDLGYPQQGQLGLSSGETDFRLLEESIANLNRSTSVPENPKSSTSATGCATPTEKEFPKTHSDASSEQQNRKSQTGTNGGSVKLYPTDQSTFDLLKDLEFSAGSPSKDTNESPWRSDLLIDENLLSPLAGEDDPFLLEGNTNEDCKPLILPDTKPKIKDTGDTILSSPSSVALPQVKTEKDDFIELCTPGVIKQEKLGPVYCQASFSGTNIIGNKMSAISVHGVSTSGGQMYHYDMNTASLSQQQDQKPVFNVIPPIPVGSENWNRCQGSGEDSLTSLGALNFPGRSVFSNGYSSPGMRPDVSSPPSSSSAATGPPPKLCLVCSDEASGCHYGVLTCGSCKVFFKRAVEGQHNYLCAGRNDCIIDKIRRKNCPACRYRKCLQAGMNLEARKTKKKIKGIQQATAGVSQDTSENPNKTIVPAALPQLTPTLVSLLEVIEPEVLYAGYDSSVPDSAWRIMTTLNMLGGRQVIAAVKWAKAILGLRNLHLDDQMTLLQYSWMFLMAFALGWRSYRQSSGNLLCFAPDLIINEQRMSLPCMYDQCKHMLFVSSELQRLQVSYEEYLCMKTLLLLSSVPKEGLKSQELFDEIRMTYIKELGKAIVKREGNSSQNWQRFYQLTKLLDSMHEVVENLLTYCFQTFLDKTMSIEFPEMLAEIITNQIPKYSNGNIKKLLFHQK
The assay is described as follows: Relative binding affinity to glucocorticoid receptor of thymus (displacement of tritium-labeled dexamethasone). Set-up: species or system rat (adrenalectomized). Particulars: relative to dexamethasone (=100). As to the method: (§1) The in vitro activity of the subject compounds was determined by measuring the binding affinities (RBA) of these compounds relative to progesterone for the progesterone receptor in the cytosol obtained from estrogen-primedimmature rabbit uterus and by measuring the RBA relative to dexamethasone for the glucocorticoid receptor from thymus of adrenalectomized rats. These assays were carried out by the procedures of J. R. Reel et al., Fertility and Sterility, 31, 552 (1979) (progesterone) and G. P. Chrousos et al., Endocrinology, 107, 472 (1980) (glucocorticoid).
^b Relative ability to displace tritiumlabeled dexamethasone from the
receptor of the thymus of adrenalectomized rats as compared to […]

Assay [1] has as its system endometrial response due to subcutaneous administration of progesterone. The assay is described as follows: Anti-McGinty intrauterine antiprogestational test. The format is in vivo, estrogen-primed immature female rabbits. The conditions noted are these: intrauterine. Here is the method:
The antiprogestational activity of the compounds was studied after both intrauterine and oral administration. In each case the compound was tested for its ability to inhibit the endometrial response due to subcutaneous administration of progesterone to estrogen-primed immature female rabbits. The methodology used for the intrauterine test has been described by D. A. McGinty et al. See Endocrinology, 24, 829 (1939). For oral administration of test compounds, the method used was analogous to that of Clauberg. See Clauberg, Zentr. Gynakol., 54, 2757 (1930) as modified by McPhail J. Physiol. (London), 83, 145 (1935). Each active compound was characterized by a dose-related ability to block the progestational effect of simultaneously administered progesterone. When the percent inhibition was plotted versus the log of the dose, linear relationships were obtained. Linear regression analysis permitted calculation of the ED50 and ED90 values (the doses required for 50% and 90% inhibition of the progesterone effect, respectively). The actual dose which gave 90% or more inhibition is also given, although this value is probably less accurate than the calculated values which are based on the dose-response line. […] Since the intrauterine administration bypasses most of the drug-metabolizing systems of the body, especially the liver, intrinsic activity is expected to correlate reasonably well with binding activity to the receptor, according to currently held hypotheses regarding receptor binding.

For another assay, the target named is T2, progesterone receptor (Oryctolagus cuniculus, UniProt P06186).
T2 construct: in the cytosol obtained from estrogen-primedimmature rabbit uterus; from tissue; host or cells: uterine cytosol of estrogen-primed immature female rabbits
T2 sequence (P06186 1-930): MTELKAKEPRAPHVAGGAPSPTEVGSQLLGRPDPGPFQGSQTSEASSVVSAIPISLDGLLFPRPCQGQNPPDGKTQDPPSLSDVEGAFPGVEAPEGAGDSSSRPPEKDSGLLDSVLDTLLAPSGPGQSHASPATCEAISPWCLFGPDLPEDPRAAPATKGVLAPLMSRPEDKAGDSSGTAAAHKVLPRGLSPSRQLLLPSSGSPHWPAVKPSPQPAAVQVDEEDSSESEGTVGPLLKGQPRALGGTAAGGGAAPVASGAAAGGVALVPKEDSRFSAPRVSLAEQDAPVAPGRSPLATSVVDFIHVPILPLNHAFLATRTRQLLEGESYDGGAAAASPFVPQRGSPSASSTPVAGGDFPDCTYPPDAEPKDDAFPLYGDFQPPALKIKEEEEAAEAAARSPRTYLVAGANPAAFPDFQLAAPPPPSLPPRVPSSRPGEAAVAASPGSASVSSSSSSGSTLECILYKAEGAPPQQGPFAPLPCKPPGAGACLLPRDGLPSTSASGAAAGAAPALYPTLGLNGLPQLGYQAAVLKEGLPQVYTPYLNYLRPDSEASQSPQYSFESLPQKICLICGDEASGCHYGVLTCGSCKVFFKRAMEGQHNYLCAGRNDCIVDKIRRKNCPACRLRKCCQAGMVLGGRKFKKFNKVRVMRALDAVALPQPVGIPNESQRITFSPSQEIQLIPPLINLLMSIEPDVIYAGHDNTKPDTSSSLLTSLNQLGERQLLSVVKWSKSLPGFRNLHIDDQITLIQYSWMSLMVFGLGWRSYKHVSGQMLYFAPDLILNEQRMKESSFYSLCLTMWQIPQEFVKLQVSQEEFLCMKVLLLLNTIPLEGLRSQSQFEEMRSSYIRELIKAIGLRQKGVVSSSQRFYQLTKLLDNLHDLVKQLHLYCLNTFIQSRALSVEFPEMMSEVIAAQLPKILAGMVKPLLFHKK
The assay is described as follows: Relative binding affinity to progesterone receptor in uterine cytosol (displacement of tritium-labeled progesterone). Further details: species or system rabbit (estrogen-primed immature female). Particulars: for P-RBA/G-RBA: ratio of RBA values for progesterone receptor to glucocorticoid receptor; for Progestin RBA: relative to progesterone (=100), rabbit uterine cytosol. As to the method:
as §1
^a Relative ability to displace tritiumlabeled progesterone from the
receptor in uterine cytosol from estrogenprimed immature female rabbits a
compared with progesterone (=100).

Assay [2] has as its system endometrial proliferation (McPhail Index). The assay is described as follows: Progestational activity, intrauterine (McGinty assay). The class given is in vivo, estrogen-primed immature female rabbits. Particulars: right horn control 0. As to the method:
In this assay estrogen-primed immature female rabbits are treated by injection of the test compound into the left horn of the uterus while the right horn is left untreated as a control. Each horn is then scored for endometrial proliferation by the McPhail Index. […] It indicates a possible need for reassessment of the current hypotheses regarding the effect of this substituent on antagonist versus agonist activity.

Another assay has as its system Cushing's syndrome. The conditions noted are these: cited from earlier work.
The test system of assay [3] is estrogen-insensitive T47Dco human breast cancer cells. The conditions noted are these: Horwitz 1985; cited from earlier work.
The conditions of assay [4]: comparison of mefipristone, ZK 98.299 (II), ZK 98.734 (III); cited from earlier work.
The mark [5] stands for this setting: footnote c: no inhibition at tested dose.
Setting [6] is: from % Inhib = a + b · ln dose, results variable, data from "best run".

In the case of `CC[C@@H]1C[C@H]2[C@@H]3C[C@H](C)C4=CC(=O)CCC4=C3[C@@H](c3ccc(N(C)C)cc3)C[C@]2(C)[C@H]1C(C)=O` [Compound 15a, 6α-Methyl-16α-ethyl-11β-(4-N,N-dimethylaminophenyl)-19-norpregna-4,9-diene-3,20-dione], on glucocorticoid receptor, the “Glucocort. RBA” value came to 246. For the same compound, in assay [1] (setting [5]), the “ED90 (actual dose)” value is below 10 µg. Further, the P-RBA/G-RBA on progesterone receptor came out at 0.42. Moreover, the “Progestin RBA” value on progesterone receptor is listed as 61. For the same compound, the “McPhail Index, Left Horn (Treated)” value is 3.8 ± 0.12 in assay [2] (dose 20.0 μg intrauterine), 3.9 ± 0.12 in assay [2] (dose 40.0 μg intrauterine) and 3.8 ± 0.12 in assay [2] (dose 80.0 μg intrauterine).
As for `CC[C@@H]1C[C@H]2[C@@H]3CCC4=CC(=O)CCC4=C3[C@@H](c3ccc(N(C)C)cc3)C[C@]2(C)[C@H]1C(C)=O` [Compound 19, 16α-Ethyl-118-(4-N,N-dimethylaminophenyl)-19-norpregna-4,9-diene-3,20-dione], on glucocorticoid receptor, the “Glucocort. RBA” value amounted to 124. Further, the “ED90 (actual dose)” value in assay [1] (setting [5]) was below 80 µg. For the same compound, at progesterone receptor, the P-RBA/G-RBA was 0.65. Further, the “Progestin RBA” value on progesterone receptor came out at 80. In addition, the “McPhail Index, Left Horn (Treated)” value in assay [2] (dose 2.0 μg intrauterine) is listed as 3.0 ± 0.32; in assay [2] (dose 4.0 μg intrauterine) it was 3.7 ± 0.12; in assay [2] (dose 8.0 μg intrauterine), 3.6 ± 0.10.
For the compound `CC#C[C@]1(O)CC[C@H]2[C@@H]3CCC4=CC(=O)CCC4=C3[C@@H](c3ccc(N(C)C)cc3)C[C@@]21C` [RU-486, reference compound], the “treatment of Cushing's syndrome” value with Cushing's syndrome (Nieman et al) was “successfully used”. In addition, the antiglucocorticoid activity entry in the assay on Cushing's syndrome (in vivo) is “very significant antiglucocorticoid activity”. Besides, in assay [1] (actual dose giving ≥ 90% inhibition, results variable, data from "best run"), the “ED90 (actual dose)” value was found to be 1.0 µg. Further, in assay [1] (setting [6]), the ED50 was found to be 0.28 µg and the “ED90 (calculated)” value was 0.87 µg. In addition, the growth-inhibitory properties result in assay [3] was “exhibits growth-inhibitory properties”.
For the compound `CN(C)c1ccc(C2CC3(C)C(CCC3(O)CCCO)C3CCC4=CC(=O)CCC4=C23)cc1` (stereo not shown) [ZK 98.299], the “antiglucocorticoid activity relative to antigestagenic potency (rank)” value in assay [4] is reported as “intermediate position”.
With `CN(C)c1ccc([C@H]2C[C@@]3(C)[C@@H](CC[C@@]3(O)/C=C\CO)[C@@H]3CCC4=CC(=O)CCC4=C32)cc1` [ZK 98.734], the “antiglucocorticoid activity relative to antigestagenic potency (rank)” value in assay [4] is given as “least active”.
